One data set concerns A375 melanoma xenograft. In words: A375 subcutaneous xenograft, BALB/c nude mice. Type of data set: in vivo. As to conditions: tail vein, every two days for 15 days. As for the experimental part:
Tumorigenesis assays were conducted in vivo using BALB/c nude mice and BALB/c mice from Guangdong Medical Laboratory Animal Center. The animal study was reviewed and approved by the Administrative Committee on Animal Research of Shenzhen International Graduate School, Tsinghua University (Ethical Development No. 16, 10 November 2021). Samples with 5 × 10^5 A375 or B16F10-Luc melanoma cells were diluted in 100 μL PBS and injected subcutaneously into 6- to 8-week-old female BALB/c nude mice or BALB/c mice. 5 days later, the mice were treated with CY12-RP2 by tail vein administration at various doses (25 mg/kg and 100 mg/kg) every two days. The tumor volume and body weight were measured every 2 days, with the calculation of the tumor volume under the assumption of an ellipsoidal tumor as: tumor volume = length × width^2/2. Tumors from BALB/c nude mice were collected and photographed on day 21, while tumors from the allograft mouse model were measured using bioluminescence imaging. The blood collected from the eyes of BALB/c nude mice were stored at 4 °C for 24 h and then centrifuged for 15 min under the indicated conditions (4 °C, 3000 rpm). The supernatant was collected and assayed for drug toxicity using kits, including AST, ALT, TG, and γ-GT. […]

Another data set relates to A375 cells. In words: Transwell matrigel invasion, A375. It is filed as cell-based. As to conditions: transwell matrigel, 0, 5, 25 μM, 48 h. As for the experimental part: For invasion assay, matrigel (Corning, New York, USA) was coated on the upper surface of the upper chamber. The upper chamber was filled with DMEM medium containing 2% FBS, while the lower chamber contained a medium supplemented with 20% FBS. In brief, melanoma cells (A375 GFP, A875 GFP, A375 PDPN^−/−, and A875 PDPN^+/+ cells) were seeded in the upper chamber of the transwell plate (Corning, New York, USA) at about 5 × 10^4 cells/well with the medium as described above. For peptide functionality experiments, A375 and A875 cells were seeded in the upper chamber of the transwell plate at a density of 5 × 10^4 cells/well with various peptide concentrations (0 μM, 5 μM, 25 μM). Transwell inserts were fixed using 4% paraformaldehyde after 48 h cell invasion, and crystalline violet was used for staining. The quantities of invading cells were quantified using ImageJ software (NIH).

The subject of data set [1] is EMT and apoptosis signaling in A375 cells. In words: Western blot, EMT and apoptosis proteins, A375. It is filed as cell-based. Conditions: 0, 5, 25 μM, 48 h. As for the experimental part: Melanoma cells were cultured in a 60 mm dish with a complete medium and various peptide concentrations (0 μM, 5 μM, 25 μM). Protein was extracted after cells were cultured or treated for 48 h using protein lysis buffer, separated using a 10% or 15% Bis–Tris PAGE gel (Epizyme Biomedical Technology, Shanghai, China), and transferred onto a PVDF membrane (Thermo Fisher Scientific) according to standard techniques. The Western blots were imaged using Bio-rad Chemidoc MP and quantified using ImageJ software (NIH).

Another data set concerns Ki67. In words: Ki67 fluorescence staining of xenograft tumors. It is filed as in vivo, BALB/c nude mice. As to conditions: A375 xenograft tumors. Here is the method:
Fig. S4: The inhibition of cells metastasis and invasion by CY12-RP2 can be […]
(A, B) The inhibition of CY12-RP2 on the migration capacity of melanoma cell lines was reversed by SKL2001 (A). Statistical analysis was performed to determine the migrated distance (B). The power field scale bar, 100 μm. (C, D) Effect of CY12-RP2 on the invasive ability of melanoma cell lines were reversed by SKL2001 (C).
Statistical analysis was performed to count the invaded cells (D). The power field scale bar, 100 μm. (E) Western blot assay was also performed to detect the proteins related to EMT and Wnt/β-catenin signaling pathway, including N-cadherin, Vimentin, snail, Dvl2, Phospho-β-catenin-S675, β-catenin, Phospho-GSK3β-Ser9 and GSK3β by CY12-RP2 with or without SKL2001 (50 μM). Data are presented as mean ± SD. *p < […]
Fig. S5: Effects and toxicity of CY12-RP2 in vivo
(A) TUNEL analysis of apoptosis was conducted on orthotopic xenografts tumor sections using fluorescence staining. The power field scale bar, 100 μm. (B) Fluorescence staining of Ki67 was carried out on orthotopic xenograft tumor sections.
The power field scale bar, 100 μm. (C) Serum His-CY12-RP2 levels of the orthotopic xenografts mice treated by various dosage of CY12-RP2 were measured by His-ELISA kit. […]
kit. (E) Serum ALT, AST, TG, and γ-GT levels of the orthotopic xenografts model were measured by ELISA. […]

Peptide text beside a SMILES is read from it.

For the molecule `CC(C)C[C@H](NC(=O)[C@H](Cc1ccc(O)cc1)NC(=O)[C@@H](N)[C@@H](C)O)C(=O)N[C@@H](CS)C(=O)N[C@H](C(=O)N[C@@H](C)C(=O)N[C@@H](CS)C(=O)N[C@@H](CC(=O)O)C(=O)N[C@@H](Cc1ccc(O)cc1)C(=O)N[C@H](C(=O)N[C@@H](Cc1c[nH]cn1)C(=O)N[C@@H](Cc1c[nH]cn1)C(=O)O)[C@@H](C)O)[C@@H](C)O` [CY12-RP2] (H-TYLCTACDYTHH-OH; N-terminus and C-terminus assumed), the tumor growth result in the data set on A375 melanoma xenograft (25 mg/kg and 100 mg/kg, especially 100 mg/kg) is “significantly inhibited the tumor growth”. For the same molecule, in the data set with A375 melanoma xenograft (nude mice, 25 and 100 mg/kg), the mean body weight entry was “no significant change”. Besides, in the data set on A375 cells, the invasion entry is on record as “significantly suppressed the invasion of A375 cells in a dose-dependent manner”. Also, in data set [1], the “expression of E-cadherin, Caspase-9, Caspase-3, and Bax” value was “significantly increased”; the “expression of N-cadherin, vimentin, snail, and BCL2” value is “decreased”. Further, the “level of Ki67” value in the data set with Ki67 was “significantly decreased”.
